Reference: patent publication US12528815B2, “5-amino-8-(4-pyridyl)-[1,2,4]triazolo[4,3-c]pyrimidin-3-one compounds for use against cancer” (Nxera Pharma UK Limited, priority 2020, dated 2026)

Assays:
human CB1 receptor = target: T1, human CB1 receptor (Homo sapiens, UniProt P21554); assay: CB1 receptor antagonism, agonist-induced cAMP modulation (HTRF) in transfected CHO cells; format: cell-based; details: read-out: Antag IC50
T1 construct: expressed in transfected cells; host or cells: CHO cells
T1 sequence (P21554 whole entry): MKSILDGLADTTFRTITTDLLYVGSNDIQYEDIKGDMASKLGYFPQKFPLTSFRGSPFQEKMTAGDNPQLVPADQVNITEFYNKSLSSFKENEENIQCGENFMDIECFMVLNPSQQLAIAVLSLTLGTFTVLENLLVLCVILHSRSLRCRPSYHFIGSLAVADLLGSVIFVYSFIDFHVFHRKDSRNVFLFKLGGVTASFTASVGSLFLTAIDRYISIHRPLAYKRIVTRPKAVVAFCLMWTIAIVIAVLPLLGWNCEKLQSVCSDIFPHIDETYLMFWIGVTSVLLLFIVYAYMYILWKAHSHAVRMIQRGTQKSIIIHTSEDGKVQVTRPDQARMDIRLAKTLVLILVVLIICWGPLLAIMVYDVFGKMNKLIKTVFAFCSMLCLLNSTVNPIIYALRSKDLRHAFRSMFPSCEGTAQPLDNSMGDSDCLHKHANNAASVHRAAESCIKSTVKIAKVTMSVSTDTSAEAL
Protocol: Receptor antagonism: Evaluation of the antagonist activity of compounds at the human CB1 receptor expressed in transfected CHO cells, determined by measuring their effects on agonist-induced cAMP modulation using the HTRF detection method.
Thereafter, the reference agonist CP 55940 and the adenylyl cyclase activator NKH 477 are added at respective final concentrations of 3 nM and 3 μM.
For basal control measurements, CP 55940 is omitted from the wells containing 3 μM AM 281.
Following 20 min incubation at 37° C., the cells are lysed and the fluorescence acceptor (D2-labeled cAMP) and fluorescence donor (anti-cAMP antibody labeled with europium cryptate) are added.
After 60 min at room temperature, the fluorescence transfer is measured at λex=337 nm and λem=620 and 665 nm using a microplate reader (Rubystar, BMG). The cAMP concentration is determined by dividing the signal measured at 665 nm by that measured at 620 nm (ratio).
The standard reference antagonist is AM 281, which is tested in each experiment at several concentrations to generate a concentration-response curve from which its IC50 value is calculated.

[1] = target: T2, human CB-1 cannabinoid receptor (Homo sapiens, UniProt P21554); assay: CB1 receptor radioligand binding assay, [3H]CP 55940, transfected CHO cell membranes; details: 0.5 nM [3H]CP 55940, CHO membrane homogenates, 120 min at 37° C.
T2 construct: expressed in transfected cells; host or cells: CHO cells
T2 sequence (P21554 whole entry): as above
Protocol: Nonspecific binding is determined in the presence of 10 μM WIN 55212-2.
Following incubation, the samples are filtered rapidly under vacuum through glass fiber filters (GF/B, Packard) presoaked with 0.3% PEI and rinsed several times with an ice-cold buffer containing 50 mM Tris-HCl (pH 7.4) and 0.5% BSA using a 96-sample cell harvester (Unifilter, Packard). The filters are dried then counted for radioactivity in a scintillation counter (Topcount, Packard) using a scintillation cocktail (Microscint 0, Packard).
The standard reference compound is CP 55940 which is tested in each experiment at several concentrations to obtain a competition curve from which its IC50 is calculated.

[2] = target: T3, human adenosine A1 receptor (Homo sapiens, UniProt P30542); assay: Inhibition binding assay, human adenosine A1 receptor membranes, [3H]DPCPX; details: 1 nM [3H]DPCPX, 25° C., 1 h; IC50 converted to Ki with Cheng-Prusoff; read-out: A1 pKi (converted)
T3 construct: expressed in transfected cells; host or cells: HEK293 cells infected with BacMam (the same paragraph also labels the preparation CHO-hA1)
T3 sequence (P30542 1-326): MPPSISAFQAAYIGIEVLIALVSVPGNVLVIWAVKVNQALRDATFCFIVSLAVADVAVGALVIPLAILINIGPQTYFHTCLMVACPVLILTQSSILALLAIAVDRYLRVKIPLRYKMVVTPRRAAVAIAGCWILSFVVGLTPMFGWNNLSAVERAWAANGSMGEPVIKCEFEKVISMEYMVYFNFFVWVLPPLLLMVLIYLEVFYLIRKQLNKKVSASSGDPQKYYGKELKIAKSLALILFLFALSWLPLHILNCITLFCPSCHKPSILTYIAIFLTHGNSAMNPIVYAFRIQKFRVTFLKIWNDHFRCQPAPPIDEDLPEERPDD
How it was run: (§1)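 Membranes from BacMam-infected HEK293 cells (0.2 μg A2A, 1.4 μg A1) incubated 1 h at 25° C with test compound and 1 nM [3H]ZM241385 (A2A; 50 mM Tris-HCl pH 7.4) or [3H]DPCPX (A1; plus 100 mM NaCl, 10 mM MgCl2). Nonspecific: 1 μM CGS15943 or DPCPX. Filtration, scintillation; IC50 converted to Ki via Cheng-Prusoff.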

[3] = target: T4, human adenosine A2A receptor (Homo sapiens, UniProt P29274); assay: Inhibition binding assay, human adenosine A2A receptor membranes, [3H]ZM241385; details: 1 nM [3H]ZM241385, HEK293-hA2A membranes, 25° C., 1 h; IC50 converted to Ki with Cheng-Prusoff; read-out: A2A pKi (converted)
T4 construct: expressed in transfected cells; host or cells: HEK293 cells infected with BacMam
T4 sequence (P29274 whole entry): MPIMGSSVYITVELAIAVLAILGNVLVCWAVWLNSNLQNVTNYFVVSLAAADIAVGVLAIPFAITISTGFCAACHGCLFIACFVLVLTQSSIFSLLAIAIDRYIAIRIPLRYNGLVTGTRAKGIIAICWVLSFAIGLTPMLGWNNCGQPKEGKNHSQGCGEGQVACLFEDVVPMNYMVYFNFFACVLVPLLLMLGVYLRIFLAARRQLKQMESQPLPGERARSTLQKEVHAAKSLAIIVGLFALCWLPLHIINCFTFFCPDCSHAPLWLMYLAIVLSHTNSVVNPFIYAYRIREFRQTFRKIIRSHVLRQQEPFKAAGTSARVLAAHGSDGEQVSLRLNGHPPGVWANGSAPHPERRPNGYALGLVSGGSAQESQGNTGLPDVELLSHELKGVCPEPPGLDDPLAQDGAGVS
How it was run: as §1

IC50 (human CB1 receptor) [nM]	Ki [1] [nM]	Ki [2] [nM]	Ki [3] [nM]	SMILES
> 100000	85000	501	1.26	Cc1cc(-c2c(-c3ccccc3)nc(N)n3c(=O)n(CCC(F)(F)F)nc23)cc(CO)n1 [Example 2-51, 5-amino-8-[2-(hydroxymethyl)-6-methyl-4-pyridyl]-7-phenyl-2-(3,3,3-trifluoropropyl)-[1,2,4]triazolo[4,3-c]pyrimidin-3-one]
> 100000	62600	126	0.631	COc1ncccc1Cn1nc2c(-c3cc(C)nc(CO)c3)c(-c3ccccc3)nc(N)n2c1=O [Example 1-57, 5-amino-8-[2-(hydroxymethyl)-6-methyl-4-pyridyl]-2-[(2-methoxy-3-pyridyl)methyl]-7-phenyl-[1,2,4]triazolo[4,3-c]pyrimidin-3-one]
9300	19900	794	0.794	COc1cc(-c2c(-c3ccccc3)nc(N)n3c(=O)n(Cc4ccc(Cl)cn4)nc23)cc(CO)n1 [Example 1-65, 5-amino-2-[(5-chloro-2-pyridyl)methyl]-8-[2-(hydroxymethyl)-6-methoxy-4-pyridyl]-7-phenyl-[1,2,4]triazolo[4,3-c]pyrimidin-3-one]
> 100000	23500	158	0.316	COc1cc(-c2c(-c3ccccc3)nc(N)n3c(=O)n(Cc4ccc(F)c(N)n4)nc23)cc(CO)n1 [Example 1-64, 5-amino-2-[(6-amino-5-fluoro-2-pyridyl)methyl]-8-[2-(hydroxymethyl)-6-methoxy-4-pyridyl]-7-phenyl-[1,2,4]triazolo[4,3-c]pyrimidin-3-one]

The next lines start with the molecule.

SMILES	IC50 (human CB1 receptor) [nM]	Ki [1] [nM]	Ki [2] [nM]	Ki [3] [nM]
Cc1ccc(Cn2nc3c(-c4cc(C)nc(CO)c4)c(-c4ccccc4)nc(N)n3c2=O)nc1 [Example 1-52, 5-amino-8-[2-(hydroxymethyl)-6-methyl-4-pyridyl]-2-[(5-methyl-2-pyridyl)methyl]-7-phenyl-[1,2,4]triazolo[4,3-c]pyrimidin-3-one]	39400	46100	501	0.631
COc1ncc(F)cc1Cn1nc2c(-c3cc(C)nc(C)c3)c(-c3ccccc3)nc(N)n2c1=O [Example 1-40, 5-amino-8-(2,6-dimethyl-4-pyridyl)-2-[(5-fluoro-2-methoxy-3-pyridyl)methyl]-7-phenyl-[1,2,4]triazolo[4,3-c]pyrimidin-3-one]	7400	24100	39.8	0.794
Cc1cc(-c2c(-c3ccccc3)nc(N)n3c(=O)n(Cc4ccc(F)cn4)nc23)cc(C)n1 [Example 1-2, 5-amino-8-(2,6-dimethyl-4-pyridyl)-2-[(5-fluoro-2-pyridyl)methyl]-7-phenyl-[1,2,4]triazolo[4,3-c]pyrimidin-3-one]	> 4900	20100	316	0.794
